From US7265096B2 (XenoPort, Inc., priority 2002, dated 2007)

Experiment: Pharmacokinetics and intestinal exposure to gemcitabine after oral dosing in mice
Format: in vivo
Details: mice, oral, 20 mg-eq. gemcitabine/kg
Procedure: Blood samples (0.5 mL) were obtained by cardiac puncture from 4 animals at each time point (1, 5, 10, 15, 30, 45 minutes and 1, 2, 4, 6 and 24 hr post-dosing). Samples were immediately transferred to tubes containing 10 μL of tetrahydrouridine (50 μg/mL in 50% methanol/water) to prevent further deamination and aliquots (100 μL) were quenched with a solution of 1% w/w formic acid in acetonitrile (300 μL). Quenched blood samples were stored at −80° C. until analyzed. Following collection of blood samples, the small intestine of each animal was removed, rinsed with saline, scraped to remove the mucosal layer, and the mucosal tissue was transferred to a pre-weighed vial containing 10 μL of tetrahydrouridine (50 μg/mL in 50% methanol/water). Sample vials were snap frozen in dry ice/acetone and stored at −80° C. until analyzed. Mucosal tissue samples were diluted 1:10 in water and 100 μL of the resulting sample was added to 400 μL of methanol.

| SMILES | Oral bioavailability as gemcitabine (in words) |
| --- | --- |
| CC(C)[C@H](N)C(=O)O[C@@H]1[C@@H](CO)O[C@@H](n2ccc(N)nc2=O)C1(F)F [Compound 3, β-1-(4-Amino-2-oxo-1H-pyrimidin-1-yl)-3-O-(L-valinyl)-2-deoxy-2,2-difluororibose] | substantial oral bioavailability |
| CC(C)(C)C(=O)OC(OC(=O)NCCOC(=O)Nc1ccn([C@@H]2O[C@H](CO)[C@@H](O)C2(F)F)c(=O)n1)C(C)(C)C (some centres unmarked) [Compound 63] | substantial oral bioavailability |
